Source: the NIST ThermoML archive (doi:10.1021/acs.jced.5b00412)

Conditions: 101.3 kPa, Liquid, Vibrating tube method

NCCCO [3-amino-1-propanol]
Conditions | mass density [kg/m3]
293.15 K | 987.5
298.15 K | 983.6
303.15 K | 979.6
308.15 K | 975.5
313.15 K | 971.5
318.15 K | 967.5
323.15 K | 963.4
328.15 K | 959.3
333.15 K | 955.8
338.15 K | 951.7
343.15 K | 947.6
348.15 K | 943.5
353.15 K | 939.3
